Data from patent US7951408B2, “Methods of feeding animals” (ADM Alliance Nutrition Inc., priority 2001, dated 2011).
Values joined by “and” are separate entries in the source; they are usually repeats but may differ in a detail not shown here. Equal entries are not always repeated. Where two headings read alike, the source gives them in different places. Marks after values point to notes of the source that are not given here.

What was measured:
[1] = test system: rumen protein digestion; assay: In vitro fermentation of protein meals with metal ions: RUP after 16 h; conditions: for Mean RUP: 150 mg/L metal ions, 16 h of fermentation
[2] = test system: rumen protein digestion; assay: In vitro digestion in artificial rumen system (Ankom Daisy): rumen protein digestion
Experimental: Metals were incorporated at 150 or 300 mg/L. […] Previous efforts focused on the digestion of high protein feeds such as oilseed meals.

[3] = test system: crossbred wether lambs; assay: Performance of lambs receiving zinc or zinc, manganese, iron combinations; format: in vivo; conditions: 16% CP, Low RUP diet plus metal sulfates (about 500 ppm total metal)
Experimental: Individually fed crossbred wether lambs were fed diets containing 14% CP (as a negative control) or 16% CP with low or high RUP content to examine the feeding of divalent metals singly or in combination. Bypass protein content was increased by feeding higher amounts of heat-treated soybean meal. In the 16%, Low RUP diet, the following metal additions were tested: 500 ppm Zn; 250 ppm Zn:250 ppm Mn; and 170 ppm Zn: 170 ppm Mn: 170 ppm Fe. All metals were added in the sulfate form, and iron was in the form of ferrous sulfate. Feeding the 16% CP: High RUP diet or adding metals to the 16% CP: Low RUP tended to decrease gain and feed efficiency with only small effects on feed intake relative to that obtained with the 16%, low RUP diet (Table 6).
For instance, Table 6A presents the data of Table 6 in a different format. The average body weight is determined by dividing the sum of the initial weight and the 42 day weight of the lamb by 2.

[4] = test system: Holstein cows; conditions: complete feed 1020 ppm of zinc, six weeks
Text: The source of RUP was a combination of heated soybean meal, corn gluten meal, and distiller dried grains.

[5] = test system: lactating dairy cows; conditions: for Dry matter intake / Intestinal Amino Acid flows, Lysine / Intestinal Amino Acid flows, Methionine / Intestinal Amino Acid flows, Total Essential Amino Acids / Ruminal digestion, Neutral Detergent Fiber / Ruminal digestion, Organic Matter / Ruminal digestion, Starch: additional 250 ppm zinc
Experimental: The concentration of RUP in high and low RUP diets were manipulated by changing the proportions of low RUP feeds (soybean meal, canola) and high RUP feeds (heated soybean meal, corn gluten meal).
Using the data presented in Table 8, the amount of metal ions fed to the cows can also be expressed in grams of metal ions per kilogram of the cow's body weight per day. For instance, Table 8A presents the data of Table 8 in a different format. The average body weight is determined by the fact that an average mature dairy cow weighs about 640 kg. The grams of metal ions fed to the cow per kg of the cow's body weight per day is determined by: multiplying the DMI (kg/day) times the metal ion concentration (grams of metal ions per kg of dry feed), resulting in the amount of metal ions in grams fed to the cow per day; the amount of metal ions in grams fed to the cow per day is divided by the average body weight of the cow, thus resulting in the grams of metal ions fed to the cow per kg of the cow's body weight per day.

[6] = test system: rumen starch digestion; assay: In vitro starch digestion and pH in artificial rumen system (Ankom Daisy)
Experimental: In vitro digestions of a complete dairy pellet, and a dairy total mixed ration TMR) were performed using an artificial rumen system (Ankom Daisy system) to evaluate the effects of metal ions on rumen starch digestion.

## [Cl][Fe]([Cl])[Cl] [Ferric Iron]
[1]; Canola
  Mean RUP: 51.6^ab
[1]; Cottonseed
  Mean RUP: 58.4^b
[1]; Heated Canola
  Mean RUP: 81.1^a
[1]; Heated SBM
  Mean RUP: 81.7^ab
[1]; SBM
  Mean RUP: 29.1^a

## O=S(=O)([O-])[O-].[Zn+2] [Zinc, zinc sulfate]
[2]
  Average rumen undegraded protein for all samples: 45 % of protein and 48 % of protein
[1]; Canola
  Mean RUP: 57.3^b
[1]; Cottonseed
  Mean RUP: 64.4^c
[1]; Heated Canola
  Mean RUP: 85.2^b
[1]; Heated SBM
  Mean RUP: 85.2^b
[1]; SBM
  Mean RUP: 56.4^c
[3]
  ADG (average daily gain): 451^a,b g/day
  G/F × 100 (ratio of weight gain to feed intake): 27.3^b
  Total Gain: 18.81^a kg
[3]; listed as Zn
  42 day weight: 43.8^a kg and 43.8 kg
  DMI (dry matter intake): 1.66^a kg/day and 1.66 kg/day
[4]
  Milk: 33.2 kg/day
  Milk Fat: 3.25%
  Milk Protein: 3.20%
[5]; High RUP diet
  Dry matter intake: 22.2 kg/day
  Intestinal Amino Acid flows, Lysine: 200.0 g/day
  Intestinal Amino Acid flows, Methionine: 58.2 g/day
  Intestinal Amino Acid flows, Total Essential Amino Acids: 1601 g/day
  Ruminal digestion, Neutral Detergent Fiber: 24.8 % of intake
  Ruminal digestion, Organic Matter: 45.5 % of intake
  Ruminal digestion, Starch: 52.8 % of intake
[5]; Low RUP diet
  Dry matter intake: 21.8 kg/day
  Intestinal Amino Acid flows, Lysine: 183.3 g/day
  Intestinal Amino Acid flows, Methionine: 49.0 g/day
  Intestinal Amino Acid flows, Total Essential Amino Acids: 1331 g/day
  Ruminal digestion, Neutral Detergent Fiber: 22.0 % of intake
  Ruminal digestion, Organic Matter: 47.3 % of intake
  Ruminal digestion, Starch: 53.6 % of intake
[5]; both the low and high RUP diets, in words
  digestion of starch in the rumen: reduced
[6]
  Ammonia: 30.8 mg/dL and 29.7 mg/dL
  Ammonia, Main Effects: -1.1 mg/dL
  Digestion Rates, Rumen Undegraded Starch (16 hours), Main Effects: .038** % per hour
  Digestion Rates, pH Decline, Main Effects: −.027 % per hour
  Rumen Undegraded Starch (16 hours): 13.2% and 12.0%
  Rumen Undegraded Starch (16 hours), Main Effects: 4.0%
  calculated kinetic rate for starch digestion: decreased
  pH at 16 hours, Main Effects: .05*
  pH at 48 hours, Main Effects: .05
  rumen undegraded starch measured at 16 h: increased

## ferrous sulfate [Ferrous Iron]
[1]; 150 mg/L, in words
  decreasing rumen protein digestion, effectiveness: substantially more effective than the ferric ion
[1]; Canola
  Mean RUP: 57.7^b
[1]; Cottonseed
  Mean RUP: 62.1^bc
[1]; Heated Canola
  Mean RUP: 83.5^b
[1]; Heated SBM
  Mean RUP: 83.9^b
[1]; SBM
  Mean RUP: 42.9^b

## manganous sulfate [Manganese]
[2]; Alfalfa Haylage, 150 mg/L
  rumen undegraded protein: 26.1
[2]; Alfalfa Haylage, 300 mg/L
  rumen undegraded protein: 24.8
[2]; Dairy Concentrate Feeds, 150 mg/L
  rumen undegraded protein: 50.9
[2]; Dairy Concentrate Feeds, 300 mg/L
  rumen undegraded protein: 52.3
[2]; metal inclusion 150 mg/L
  Average rumen undegraded protein for all samples: 43.2 % of protein
[2]; metal inclusion 300 mg/L
  Average rumen undegraded protein for all samples: 42.5 % of protein
[6]; 150 mg/L metal
  Ammonia: 32.1 mg/dL
  Digestion Rates, Rumen Undegraded Starch (16 hours): −.137 % per hour
  Digestion Rates, pH Decline: .135 % per hour
  Rumen Undegraded Starch (16 hours): 5.1%
  pH at 16 hours: −.28
  pH at 48 hours: −.30
[6]; 300 mg/L metal
  Ammonia: 34.2 mg/dL
  Digestion Rates, Rumen Undegraded Starch (16 hours): −.132 % per hour
  Digestion Rates, pH Decline: .247 % per hour
  Rumen Undegraded Starch (16 hours): 8.0%
  pH at 16 hours: −.34
  pH at 48 hours: −.27
[6]; main effect of metal
  Ammonia, Main Effects: 1.8 mg/dL
  Digestion Rates, Rumen Undegraded Starch (16 hours), Main Effects: 0.0 % per hour
  Digestion Rates, pH Decline, Main Effects: −.043 % per hour
  Rumen Undegraded Starch (16 hours), Main Effects: −2.0%
  pH at 16 hours, Main Effects: .05*
  pH at 48 hours, Main Effects: .03
